Paper PMC6017745 (Molecules : A Journal of Synthetic Chemistry and Natural …, 2018)
Entries after “also recorded” stand apart in the source; their conditions may differ. Where two headings read alike, the source gives them in different places. Each block holds one compound with its values, some of them ahead of it.

Legend:
Lewis rats = experiment: Food consumption during subchronic administration to rats (metabolic cages); assay type: in vivo, rat; conditions: s.c. 3 mg/kg/daily for five days
[1] = tested on: histamine concentration in rat brain; experiment: Post-mortem cerebral histamine concentration (ELISA); assay type: in vivo; conditions: rats, s.c. 3 mg/kg/daily for five days
MAO-A = experiment: Post-mortem cerebral MAO-A activity (radioisotopic assay); assay type: in vivo, rat; conditions: cerebral cortex, rats s.c. 3 mg/kg/daily for five days, means ± SEM
Procedure: (§1) Post-mortem brain analyses included estimation of the amine neurotransmitters concentrations as well as the activities of the degradative enzymes HNMT and MAO-A and MAO-B. The rats were sacrificed 24 h after the last injection. The brains were collected, separated into hypothalamus and the cerebral cortex according to the Glowinski and Iversen method, immediately frozen in liquid nitrogen and kept at −80 °C until assayed. […] For MAO-A serotonin (5-[2-^14C]-hydroxytryptamine binoxalate) and for MAO-B β-[ethyl-1-^14C]-phenylethylamine hydrochloride were used as substrates and respectively, clorgyline (MAO-A) and deprenyl (MAO-B) (final conc. 10^−9 M) as the enzymes inhibitors. Protein was measured by Lowry method.

MAO-B = experiment: Post-mortem cerebral MAO-B activity (radioisotopic assay); assay type: in vivo, rat; conditions: cerebral cortex, rats s.c. 3 mg/kg/daily for five days, means ± SEM
Procedure: as §1

HNMT = experiment: Post-mortem cerebral HNMT activity (radioisotopic assay); assay type: in vivo, rat; conditions: for HNMT activity CTX: cerebral cortex; for HNMT activity CTX / HNMT activity HTH: rats s.c. 3 mg/kg/daily for five days, means ± SEM; for HNMT activity HTH: hypothalamus
[2] = tested on: dopamine, noradrenaline and serotonin concentration in rat brain; experiment: Post-mortem cerebral concentration of biogenic amines DA, NA, 5-HT (RIA); assay type: in vivo; conditions: rats
H1 receptor [3] = target: T1, H1 receptor (Cavia porcellus, UniProt P31389); set-up: The excised ileum was placed in phosphate buffer at room temperature; from tissue; host or cells: guinea pig ileum; conditions: guinea pig ileum, NA = inactive, cited from earlier work
H1 receptor [4] = target: T1, H1 receptor; experiment: H1 antagonistic effects in vitro using the guinea pig ileum
H3 receptor = H3 receptor (Cavia porcellus, UniProt Q9JI35); experiment: H3 antagonistic activity against H3 agonist-induced inhibition of electrically evoked contraction of guinea-pig jejunum; conditions: vs (R)-α-methylhistamine, Schild analysis; for pA2 (SEM) H3: guinea pig jejunum; for Kb: pA2 (SEM) H3, guinea pig jejunum
[5] = target: T2, rat histamine H3 receptor (rH3R) (Rattus norvegicus, UniProt Q9QYN8); experiment: biochemical
[6] = target: T2, rat histamine H3 receptor (rH3R); conditions: read-out: KD saturation binding at rH3R; HEK-293T membranes, two hours at 25 °C
[7] = target: human histamine H3 receptor (hH3R) (Homo sapiens, UniProt Q9Y5N1); conditions: read-out: KD saturation binding at hH3R
Sequence of human histamine H3 receptor (hH3R) (Q9Y5N1 whole entry): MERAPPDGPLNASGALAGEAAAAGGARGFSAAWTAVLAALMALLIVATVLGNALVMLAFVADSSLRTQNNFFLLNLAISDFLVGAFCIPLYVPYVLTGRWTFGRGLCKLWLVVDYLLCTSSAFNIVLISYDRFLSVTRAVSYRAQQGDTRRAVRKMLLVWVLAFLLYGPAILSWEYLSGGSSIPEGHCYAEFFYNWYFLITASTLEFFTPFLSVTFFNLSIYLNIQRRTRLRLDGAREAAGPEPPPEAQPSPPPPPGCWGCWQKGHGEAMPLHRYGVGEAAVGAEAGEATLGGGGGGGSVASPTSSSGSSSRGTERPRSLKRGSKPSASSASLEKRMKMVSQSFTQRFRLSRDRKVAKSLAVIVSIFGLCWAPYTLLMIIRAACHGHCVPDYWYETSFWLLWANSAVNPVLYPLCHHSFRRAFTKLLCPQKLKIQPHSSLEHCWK

T1 sequence (P31389 whole entry): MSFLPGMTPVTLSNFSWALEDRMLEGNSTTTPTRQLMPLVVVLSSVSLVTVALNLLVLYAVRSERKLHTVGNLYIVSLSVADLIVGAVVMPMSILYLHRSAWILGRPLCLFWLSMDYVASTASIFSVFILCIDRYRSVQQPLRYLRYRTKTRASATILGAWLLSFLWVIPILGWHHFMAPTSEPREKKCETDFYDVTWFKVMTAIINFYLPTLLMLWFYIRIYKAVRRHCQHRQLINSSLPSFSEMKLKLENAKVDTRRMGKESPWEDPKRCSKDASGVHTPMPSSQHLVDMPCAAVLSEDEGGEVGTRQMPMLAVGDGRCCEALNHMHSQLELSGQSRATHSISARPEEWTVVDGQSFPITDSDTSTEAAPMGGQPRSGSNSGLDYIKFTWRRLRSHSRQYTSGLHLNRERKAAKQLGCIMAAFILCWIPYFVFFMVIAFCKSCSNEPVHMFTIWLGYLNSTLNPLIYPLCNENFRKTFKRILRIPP
Sequence of H3 receptor (Q9JI35 whole entry): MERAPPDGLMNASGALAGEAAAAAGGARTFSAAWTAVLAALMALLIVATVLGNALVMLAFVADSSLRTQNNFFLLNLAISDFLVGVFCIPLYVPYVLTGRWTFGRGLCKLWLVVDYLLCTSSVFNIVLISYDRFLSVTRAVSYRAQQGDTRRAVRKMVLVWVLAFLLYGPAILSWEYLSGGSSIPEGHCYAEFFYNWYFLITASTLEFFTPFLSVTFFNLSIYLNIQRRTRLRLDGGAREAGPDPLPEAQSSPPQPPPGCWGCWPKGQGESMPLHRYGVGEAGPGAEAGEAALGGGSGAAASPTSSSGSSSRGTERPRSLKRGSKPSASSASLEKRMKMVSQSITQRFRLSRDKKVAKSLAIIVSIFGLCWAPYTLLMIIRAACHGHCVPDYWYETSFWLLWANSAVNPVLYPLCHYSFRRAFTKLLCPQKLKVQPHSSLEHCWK
T2 sequence (Q9QYN8 whole entry): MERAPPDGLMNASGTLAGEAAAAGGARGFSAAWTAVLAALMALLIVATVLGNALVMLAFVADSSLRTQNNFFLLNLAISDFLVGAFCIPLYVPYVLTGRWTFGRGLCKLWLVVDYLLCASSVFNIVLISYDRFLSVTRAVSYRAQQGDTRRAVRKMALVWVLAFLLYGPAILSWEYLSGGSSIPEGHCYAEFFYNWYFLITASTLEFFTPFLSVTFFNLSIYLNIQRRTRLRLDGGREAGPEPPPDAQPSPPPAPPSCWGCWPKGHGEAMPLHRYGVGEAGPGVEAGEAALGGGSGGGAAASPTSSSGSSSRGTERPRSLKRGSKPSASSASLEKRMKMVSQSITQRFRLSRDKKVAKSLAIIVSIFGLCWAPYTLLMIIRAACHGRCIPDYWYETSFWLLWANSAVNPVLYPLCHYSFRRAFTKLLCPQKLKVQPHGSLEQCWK

SMILES: O=C(c1ccc(OCCCc2cnc[nH]2)cc1)C1CC1 [Ciproxifan, ciproxifan, reference compound]
effect on food intake (Lewis rats): caused a significant decrease in consumption
histamine concentration in the hypothalamus ([1]; 3 mg/kg): tended to be higher than in the untreated controls; also recorded: significantly higher than in ADS-531 injected rats
MAO-A activity CTX (MAO-A): 1654 ± 31.42 pmol/min/mg protein
MAO-B activity CTX (MAO-B): 1049 ± 56.16 pmol/min/mg protein
HNMT activity CTX (HNMT): 46.90 ± 3.59 pmol/min/mg protein
HNMT activity HTH (HNMT): 44.68 ± 5.50 pmol/min/mg protein

SMILES: CCCN1CCN(c2ncc(CCN(C)CCCc3ccccc3)s2)CC1 [Compound 2c, N-methyl-N-3-phenylalkyl-2-[2-(4-n-propylpiperazin-1-yl)-1,3-thiazol-5-yl]ethan-1-amine]
effect on food intake (Lewis rats; listed as ADS-531, 3 mg/kg): did not affect histamine concentration nor feeding behavior; also recorded: did not influence the food intake
cerebral histamine concentration ([1]; listed as ADS-531, 3 mg/kg): did not affect histamine concentration; also recorded: No significant changes
brain penetration ([2]; s.c. 3 mg/kg, 5 days): penetrated the brain
cerebral concentrations of dopamine, noradrenaline and serotonin ([2]; s.c. 3 mg/kg/daily for five days, listed as ADS-531, 3 mg/kg): affected dopamine, noradrenaline and serotonin concentration; also recorded: caused alterations in the concentrations of dopamine, noradrenaline, and serotonin; also recorded: increase of 5HT and NA level throughout the brain with the exception of the hypothalamus
MAO-A activity CTX (MAO-A): 1625 ± 49.99 pmol/min/mg protein
MAO-B activity CTX (MAO-B): 1044 ± 38.91 pmol/min/mg protein
HNMT activity CTX (HNMT): 48.19 ± 0.47 pmol/min/mg protein
HNMT activity HTH (HNMT): 37.58 ± 2.42 pmol/min/mg protein
effect on enzyme activities related to histamine metabolism in the brain (HNMT, MAO-B pathway) (HNMT; rats, s.c. 3 mg/kg/daily for five days): No significant changes
pA2 (SEM) H1 (H1 receptor [3]): did not possess any activity at H1
pA2 (SEM) H1 (H1 receptor [3]; listed as ADS-531): did not exhibit any H1-antagonistic activity; also recorded: devoid of the antagonistic activity at the H1 receptor

SMILES: S=C(NC1CCCCC1)N1CCC(c2cnc[nH]2)CC1 [Thioperamide, thioperamide, reference compound]
Ki [5]: 12.6 nM
Kb (H3 receptor): 3.39 nM

SMILES: CNCCc1cnc[nH]1 [[^3H]-N^α-MH, [^3H]-N^α-methylhistamine]
Kd [6]: 2.72 ± 0.34 nM
Kd [7]: 0.9 ± 0.08 nM

Continued, values first:

Kb (H1 receptor [4]): 3160 nM
pA2 (SEM) H3 (H3 receptor): 8.38
Kb (H3 receptor): 4.17 nM
SMILES: CCCN1CCN(c2ncc(CCCN(C)Cc3ccccc3)s2)CC1 [Compound 3a, N-Benzyl-N-methyl-3-[2-(4-n-piperazin-1-yl)-1,3-thiazol-5-yl]propan-1-amine]

pA2 (SEM) H3 (H3 receptor): 7.81
Kb (H3 receptor): 15.5 nM
SMILES: CCCN1CCN(c2ncc(CCCN(C)CCc3ccccc3)s2)CC1 [Compound 3b, N-Methyl-N-(2-phenylethyl)-3-[2-(4-n-propylpiperazin-1-yl)-1,3-thiazol-5-yl]propan-1-amine]

pA2 (SEM) H3 (H3 receptor): 7.46
Kb (H3 receptor): 34.7 nM
SMILES: CCCN1CCN(c2ncc(CCCN(C)CCCc3ccccc3)s2)CC1 [Compound 3c, N-Methyl-N-(3-phenylpropyl)-3-[2-(4-n-propylpropylpiperazin-1-yl)-1,3-thiazol-5-yl]-propan-1-amine]

Kb (H1 receptor [4]): 562 nM
pA2 (SEM) H1 (H1 receptor [4]; guinea pig ileum, vs histamine): 6.25
Kb (H3 receptor): 11.2 nM
SMILES: CCCN1CCN(c2ncc(CCCCN(C)Cc3ccccc3)s2)CC1 [Compound 3d, N-Benzyl-N-methyl-4-[2-(4-n-propylpiperazin-1-yl)-1,3-thiazol-5-yl]butan-1-amine]

Kb (H3 receptor): 10.7 nM
SMILES: CCCN1CCN(c2ncc(CCCCN(C)CCc3ccccc3)s2)CC1 [Compound 3e, N-Methyl-N-(2-phenylethyl)-4-[2-(4-n-propylpiperazin-1-yl)-1,3-thiazol-5-yl]butan-1-amine]

pA2 (SEM) H3 (H3 receptor): 7.91
Kb (H3 receptor): 12.3 nM
SMILES: CCCN1CCN(c2ncc(CCCCN(C)CCCc3ccccc3)s2)CC1 [Compound 3f, N-Methyl-N-(3-phenylpropyl)-4-[2-(4-n-propylpiperazin-1-yl)-1,3-thiazol-5-yl]butan-1-amine]
